Laboratory results as given in patent publication US20210215714A1, “COMPLEMENT ALTERNATIVE PATHWAY-ASSOCIATED NEPHROPATHY BIOMARKERS” (Achillion Pharmaceuticals, Inc., priority 2018, published 2021).

Tested on: Ba
Experiment: Phase 2a study: urinary Ba (MicroVue Ba Enzyme Immunoassay)
Format: in vivo, human
[1] = Patient A, 100 mg TID, Day 1/0 Hour
[2] = Patient A, 100 mg TID, Day 7/0 Hour
[3] = Patient A, 100 mg TID, Day 15 Taper
[4] = Patient A, 100 mg TID, Day 16 Taper
[5] = Patient A, 100 mg TID, Day 17 Taper
[6] = Patient A, 100 mg TID, Day 21 Taper
[7] = Patient A, 100 mg TID, Follow-Up Day 24
[8] = Patient A, 100 mg TID, Follow-Up Day 28
[9] = Patient A, 100 mg TID, Follow-Up Day 49
[10] = Patient B, 100 mg TID, Day 1/0 Hour
[11] = Patient B, 100 mg TID, Day 7/0 Hour
[12] = Patient B, 100 mg TID, Day 15 Taper
[13] = Patient B, 100 mg TID, Day 16 Taper
[14] = Patient B, 100 mg TID, Day 17 Taper
[15] = Patient B, 100 mg TID, Day 21 Taper
[16] = Patient B, 100 mg TID, Follow-Up Day 24
[17] = Patient B, 100 mg TID, Follow-Up Day 28
[18] = Patient B, 100 mg TID, Follow-Up Day 49
[19] = Patient C, 200 mg TID, Day 1/0 Hour
[20] = Patient C, 200 mg TID, Day 7/0 Hour
[21] = Patient C, 200 mg TID, Day 15 Taper
[22] = Patient C, 200 mg TID, Day 16 Taper
[23] = Patient C, 200 mg TID, Day 17 Taper
[24] = Patient C, 200 mg TID, Day 21 Taper
[25] = Patient C, 200 mg TID, Follow-Up Day 24
[26] = Patient C, 200 mg TID, Follow-Up Day 28
[27] = Patient C, 200 mg TID, Follow-Up Day 49
[28] = Patient D, 200 mg TID, Day 1/0 Hour
[29] = Patient D, 200 mg TID, Day 7/0 Hour
[30] = Patient D, 200 mg TID, Day 15 Taper
[31] = Patient D, 200 mg TID, Day 17 Taper
[32] = Patient D, 200 mg TID, Day 21 Taper

In the case of `CC(=O)c1nn(CC(=O)N2C[C@H](F)C[C@H]2C(=O)Nc2cccc(Br)n2)c2ccc(-c3cnc(C)nc3)cc12` [Compound 1, (2S,4R)-1-(2-(3-acetyl-5-(2-methylpyrimidin-5-yl)-1H-indazol-1-yl)acetyl)-N-(6-bromopyridin-2-yl)-4-fluoropyrrolidine-2-carboxamide], the Ba/ALB [1] was 22.1 ng/mg, the Ba/Cr [1] was 5.7 µg/mmol and the “Urine Ba” value [1] was 47.1 ng/mL. The Ba/ALB (Patient A, 100 mg TID, Day 4) was 8.4 ng/mg, the Ba/Cr (Patient A, 100 mg TID, Day 4) was 1.8 µg/mmol and the “Urine Ba” value (Patient A, 100 mg TID, Day 4) was 14.7 ng/mL. The Ba/ALB [2] was 7.5 ng/mg, the Ba/Cr [2] was 1.8 µg/mmol and the “Urine Ba” value [2] was 11.6 ng/mL. The Ba/ALB (Patient A, 100 mg TID, Day 10) was 6.1 ng/mg, the Ba/Cr (Patient A, 100 mg TID, Day 10) was 1.4 µg/mmol and the “Urine Ba” value (Patient A, 100 mg TID, Day 10) was 8.6 ng/mL. For the same compound, the Ba/ALB [3] was 11.4 ng/mg, the Ba/Cr [3] was 1.6 µg/mmol and the “Urine Ba” value [3] was 11.9 ng/mL. For the same compound, the Ba/ALB [4] was 16.3 ng/mg, the Ba/Cr [4] was 2.3 µg/mmol and the “Urine Ba” value [4] was 17.4 ng/mL. For the same compound, the Ba/ALB [5] was 18.6 ng/mg, the Ba/Cr [5] was 2.1 µg/mmol and the “Urine Ba” value [5] was 21.2 ng/mL. The Ba/ALB [6] was 65.5 ng/mg, the Ba/Cr [6] was 9.2 µg/mmol and the “Urine Ba” value [6] was 79.8 ng/mL. For the same compound, the Ba/ALB [7] was 83.3 ng/mg, the Ba/Cr [7] was 11.5 µg/mmol and the “Urine Ba” value [7] was 115.3 ng/mL. The Ba/ALB [8] was 77.1 ng/mg, the Ba/Cr [8] was 10.2 µg/mmol and the “Urine Ba” value [8] was 100.8 ng/mL. For the same compound, the Ba/ALB [9] was 26.5 ng/mg, the Ba/Cr [9] was 3.8 µg/mmol and the “Urine Ba” value [9] was 16.5 ng/mL. The Ba/ALB (Patient A, 100 mg TID, Screen) was 15.0 ng/mg, the Ba/Cr (Patient A, 100 mg TID, Screen) was 3.4 µg/mmol and the “Urine Ba” value (Patient A, 100 mg TID, Screen) was 28.3 ng/mL. The Ba/ALB [10] was 225 ng/mg, the Ba/Cr [10] was 129.9 µg/mmol and the “Urine Ba” value [10] was 793 ng/mL. For the same compound, the Ba/ALB (Patient B, 100 mg TID, Day 4) was 47 ng/mg, the Ba/Cr (Patient B, 100 mg TID, Day 4) was 12.4 µg/mmol and the “Urine Ba” value (Patient B, 100 mg TID, Day 4) was 158 ng/mL. For the same compound, the Ba/ALB [11] was 41 ng/mg, the Ba/Cr [11] was 10.2 µg/mmol and the “Urine Ba” value [11] was 149 ng/mL. The Ba/ALB (Patient B, 100 mg TID, Day 10) was 28 ng/mg, the Ba/Cr (Patient B, 100 mg TID, Day 10) was 7.0 µg/mmol and the “Urine Ba” value (Patient B, 100 mg TID, Day 10) was 53 ng/mL. The Ba/ALB (Patient B, 100 mg TID, Day 14) was 54 ng/mg, the Ba/Cr (Patient B, 100 mg TID, Day 14) was 14.2 µg/mmol and the “Urine Ba” value (Patient B, 100 mg TID, Day 14) was 238 ng/mL. The Ba/ALB [12] was 58 ng/mg, the Ba/Cr [12] was 19.0 µg/mmol and the “Urine Ba” value [12] was 209 ng/mL. For the same compound, the Ba/ALB [13] was 77 ng/mg, the Ba/Cr [13] was 25.2 µg/mmol and the “Urine Ba” value [13] was 318 ng/mL. The Ba/ALB [14] was 55 ng/mg, the “Urine Ba” value [14] was 164 ng/mL and the Ba/ALB [15] was 43 ng/mg. The Ba/Cr [15] was 15.9 µg/mmol, the “Urine Ba” value [15] was 129 ng/mL and the Ba/ALB [16] was 87 ng/mg. For the same compound, the Ba/Cr [16] was 41.1 µg/mmol, the “Urine Ba” value [16] was 251 ng/mL and the Ba/ALB [17] was 65 ng/mg. For the same compound, the Ba/Cr [17] was 24.6 µg/mmol, the “Urine Ba” value [17] was 175 ng/mL and the Ba/ALB [18] was 771 ng/mg. For the same compound, the Ba/Cr [18] was 108.0 µg/mmol, the “Urine Ba” value [18] was 1727 ng/mL and the Ba/ALB (Patient B, 100 mg TID, Screen) was 97 ng/mg. For the same compound, the Ba/Cr (Patient B, 100 mg TID, Screen) was 47.1 µg/mmol, the “Urine Ba” value (Patient B, 100 mg TID, Screen) was 348 ng/mL and the Ba/ALB [19] was 2.9 ng/mg. The Ba/Cr [19] was 0.168 µg/mmol, the “Urine Ba” value [19] was 0.30 ng/mL and the Ba/ALB (Patient C, 200 mg TID, Day 4) was 1.5 ng/mg. The Ba/Cr (Patient C, 200 mg TID, Day 4) was 0.040 µg/mmol, the “Urine Ba” value (Patient C, 200 mg TID, Day 4) was 0.08 ng/mL and the Ba/ALB [20] was 2.6 ng/mg. For the same compound, the Ba/Cr [20] was 0.056 µg/mmol, the “Urine Ba” value [20] was 0.21 ng/mL and the Ba/ALB (Patient C, 200 mg TID, Day 10) was 1.5 ng/mg. For the same compound, the Ba/Cr (Patient C, 200 mg TID, Day 10) was 0.053 µg/mmol, the “Urine Ba” value (Patient C, 200 mg TID, Day 10) was 0.08 ng/mL and the Ba/ALB (Patient C, 200 mg TID, Day 14) was 2.2 ng/mg. The Ba/Cr (Patient C, 200 mg TID, Day 14) was 0.068 µg/mmol, the “Urine Ba” value (Patient C, 200 mg TID, Day 14) was 0.09 ng/mL and the Ba/ALB [21] was 2.2 ng/mg. For the same compound, the Ba/Cr [21] was 0.099 µg/mmol, the “Urine Ba” value [21] was 0.15 ng/mL and the Ba/ALB [22] was 3.0 ng/mg. The Ba/Cr [22] was 0.078 µg/mmol, the “Urine Ba” value [22] was 0.15 ng/mL and the Ba/ALB [23] was 1.8 ng/mg. For the same compound, the Ba/Cr [23] was 0.058 µg/mmol, the “Urine Ba” value [23] was 0.13 ng/mL and the Ba/ALB [24] was 7.5 ng/mg. For the same compound, the Ba/Cr [24] was 0.175 µg/mmol, the “Urine Ba” value [24] was 0.49 ng/mL and the Ba/ALB [25] was 2.3 ng/mg. For the same compound, the Ba/Cr [25] was 0.075 µg/mmol, the “Urine Ba” value [25] was 0.14 ng/mL and the Ba/ALB [26] was 4.5 ng/mg. The Ba/Cr [26] was 0.213 µg/mmol, the “Urine Ba” value [26] was 0.62 ng/mL and the Ba/ALB [27] was 1.7 ng/mg. The Ba/Cr [27] was 0.036 µg/mmol, the “Urine Ba” value [27] was 0.16 ng/mL and the Ba/ALB (Patient C, 200 mg TID, Screen) was 1.5 ng/mg. For the same compound, the Ba/Cr (Patient C, 200 mg TID, Screen) was 0.065 µg/mmol, the “Urine Ba” value (Patient C, 200 mg TID, Screen) was 0.12 ng/mL and the Ba/ALB [28] was 10.9 ng/mg. The Ba/Cr [28] was 2.5 µg/mmol, the “Urine Ba” value [28] was 14.2 ng/mL and the Ba/ALB (Patient D, 200 mg TID, Day 4) was 3.5 ng/mg. The Ba/Cr (Patient D, 200 mg TID, Day 4) was 1.0 µg/mmol, the “Urine Ba” value (Patient D, 200 mg TID, Day 4) was 4.4 ng/mL and the Ba/ALB [29] was 6.5 ng/mg. The Ba/Cr [29] was 2.1 µg/mmol, the “Urine Ba” value [29] was 2.4 ng/mL and the Ba/ALB (Patient D, 200 mg TID, Day 10) was 2.8 ng/mg. For the same compound, the Ba/Cr (Patient D, 200 mg TID, Day 10) was 1.8 µg/mmol, the “Urine Ba” value (Patient D, 200 mg TID, Day 10) was 1.8 ng/mL and the Ba/ALB (Patient D, 200 mg TID, Day 14) was 4.6 ng/mg. For the same compound, the Ba/Cr (Patient D, 200 mg TID, Day 14) was 1.3 µg/mmol, the “Urine Ba” value (Patient D, 200 mg TID, Day 14) was 4.1 ng/mL and the Ba/ALB [30] was 4.3 ng/mg. For the same compound, the Ba/Cr [30] was 2.0 µg/mmol, the “Urine Ba” value [30] was 8.4 ng/mL and the Ba/ALB [31] was 2.9 ng/mg. For the same compound, the Ba/Cr [31] was 1.7 µg/mmol, the “Urine Ba” value [31] was 5.0 ng/mL and the Ba/ALB [32] was 7.8 ng/mg. It also gave a Ba/Cr [32] of 4.4 µg/mmol.
